Where two headings read alike, the source gives them in different places.
Columns and labels:
Type in all cases: in vivo
[1] = tested on: yellow fever mosquito (Aedes aegypti); test: whole plant or invertebrate
Method: For evaluating control of yellow fever mosquito (Aedes aegypti) the test unit consisted of 96-well-microtiter plates containing 200 μl of tap water per well and 5-15 freshly hatched A. aegypti larvae.
The compounds or mixtures were formulated using a solution containing 75% water and 25% DMSO. Different concentrations of formulated compounds or mixtures were sprayed onto the insect diet at 2.5 μl, using a custom-built micro atomizer, at two replications.
(§1) For experimental mixtures in these tests identical volumes of both mixing partners at the desired concentrations respectively, were mixed together.
After application, microtiter plates were incubated at 28±1° C., 80±5% RH for 2 days. Larval mortality was then visually assessed. For the mixture tested the results are listed in Table 2.1 to 2.11, wherein the * marks synergistic control effect according to Colby's equation.

[2] = tested on: tobacco budworm (Heliothis virescens); test: Test 1: control of tobacco budworm, 96-well microtiter plates with insect diet and eggs
Method: For evaluating control of tobacco budworm (Heliothis virescens) the test unit consisted of 96-well-microtiter plates containing an insect diet and 15-25 H. virescens eggs.
The compounds or mixtures were formulated using a solution containing 75% water and 25% DMSO. Different concentrations of formulated compounds or mixtures were sprayed onto the insect diet at 10 μl, using a custom-built micro atomizer, at two replications.
For experimental mixtures in these tests, identical volumes of both mixing partners at the desired concentrations respectively, were mixed together.
After application, microtiter plates were incubated at 28±1° C., 80±5% RH for 5 days. Egg and larval mortality were then visually assessed. For the mixture tested the results are listed in Tables 1.1 to 1.7, wherein the * marks synergistic control effect according to Colby's equation.

[3] = tested on: green peach aphid (Myzus persicae); test: Test 3: control of green peach aphid through systemic means, artificial diet under membrane; conditions: aphid mortality and fecundity after 3 days
From the text: For evaluating control of green peach aphid (Myzus persicae) through systemic means the test unit consisted of 96-well-microtiter plates containing liquid artificial diet under an artificial membrane.
Different concentrations of formulated compounds or mixtures were pipetted into the aphid diet, using a custom built pipetter, at two replications.
as §1
After application, 5-8 adult aphids were placed on the artificial membrane inside the microtiter plate wells. The aphids were then allowed to suck on the treated aphid diet and incubated at 23±1° C. 50±5% RH for 3 days. Aphid mortality and fecundity was then visually assessed.

[4] = tested on: boll weevil (Anthonomus grandis); test: Test 4: control of boll weevil, 24-well microtiter plates with insect diet and eggs; conditions: egg and larval mortality after 5 days
Method: For evaluating control of boll weevil (Anthonomus grandis) the test unit consisted of 24-well-microtiter plates containing an insect diet and 20-30 A. grandis eggs.
The compounds or mixtures were formulated using a solution containing 75% water and 25% DMSO. Different concentrations of formulated compounds or mixtures were sprayed onto the insect diet at 20 μl, using a custom-built micro atomizer, at two replications.
as §1
After application, microtiter plates were incubated at 23±1° C., 50±5% RH for 5 days. Egg and larval mortality was then visually assessed. For the mixture tested the results are listed in tables 4.1 to 4.4, wherein the * marks synergistic control effect according to Colby's equation.

[5] = tested on: tobacco budworm (Plutella xylostella); test: Test 5: control of Plutella xylostella, 96-well microtiter plates with insect diet and eggs; conditions: egg and larval mortality after 5 days
Method: For evaluating control of […] (Plutella xylostella) the test unit consisted of 96-well-microtiter plates containing an insect diet and 15-25 P. xylostella eggs.
The compounds or mixtures were formulated using a solution containing 75% water and 25% DMSO. Different concentrations of formulated compounds or mixtures were sprayed onto the insect diet at 5 μl, using a custom-built micro atomizer, at two replications.
as §1
After application, microtiter plates were incubated at 28±1° C., 80±5% RH for 5 days. Egg and larval mortality was then visually assessed.

[6] = Aedes aegypti, 48 h, 0.4 ppm, larval mortality after 2 days, read-out: Average control observed (%)
[7] = Heliothis virescens, 120 h, 0.4 ppm, egg and larval mortality after 5 days, read-out: Average control observed (%)
[8] = Aedes aegypti, 48 h, 4 ppm, larval mortality after 2 days, read-out: Average control observed (%)
[9] = 0.4 ppm, larval mortality after 2 days
[10] = 2 ppm, larval mortality after 2 days

## CC1(C)[C@H](/C=C(\Cl)C(F)(F)F)[C@@H]1C(=O)O[C@@H](C#N)c1cccc(Oc2ccccc2)c1 [lamda-cyhalothrin (2e), lamda-cyhalothrin]
[1]; 0.16 ppm, larval mortality after 2 days
  Average control observed (%): 0%
[2]; 0.16 ppm, egg and larval mortality after 5 days
  Average control observed (%): 50%

## CN/C(=N/CC1CCOC1)N[N+](=O)[O-] (centres unmarked) [Dinotefuran (3f), dinotefuran]
[1]; Aedes aegypti, 48 h, read-out: Average control observed (%)
  pest or weed control at 4 ppm: 0%
[2]; Heliothis virescens, 120 h, 20 ppm, egg and larval mortality after 5 days, read-out: Average control observed (%)
  pest or weed control at 20 ppm: 0%

## CNC(=O)c1cc(Cl)cc(C)c1NC(=O)c1cc(Br)nn1-c1ncccc1Cl [Chlorantraniliprole (14b), Chlorantraniliprole]
[3]; 0.4 ppm
  Average control observed (%): 0%

## CCN(C(=O)c1cnn(C(C)C(C)C)c1C)c1ccnnc1 (centres unmarked) [Dimpropyridaz (17b), dimpropyridaz]
[3]; 2 ppm
  Average control observed (%): 0%

## CCOCn1c(-c2ccc(Cl)cc2)c(C#N)c(Br)c1C(F)(F)F [Chlorfenapyr (8), chlorfenapyr]
[1]; Aedes aegypti, 48 h, 0.8 ppm, larval mortality after 2 days, read-out: Average control observed (%)
  pest or weed control at 0.8 ppm: 0%

## O=C(NC(=O)c1c(F)cccc1F)Nc1cc(Cl)c(F)c(Cl)c1F [Teflubenzuron (9), teflubenzuron]
[4]; 0.1 ppm
  Average control observed (%): 12.5%

## spinetoram [Spinetoram (4b)]
[2]; 0.2 ppm, egg and larval mortality after 5 days
  Average control observed (%): 0%

## Cc1c(COC(=O)[C@@H]2[C@H](/C=C(\Cl)C(F)(F)F)C2(C)C)cccc1-c1ccccc1 (racemic) [Bifenthrin (2b), bifenthrin]
[1]; [6]
  pest or weed control at 0.4 ppm: 25%
[2]; [7]
  pest or weed control at 0.4 ppm: 0%

## N#C/N=C1\SCCN1Cc1ccc(Cl)nc1 [Thiacloprid (3e), thiacloprid]
[1]; [8]
  pest or weed control at 4 ppm: 50%

## O=[N+]([O-])NC1=NCCN1Cc1ccc(Cl)nc1 [Imidacloprid (3b), imidacloprid]
[3]; 0.8 ppm
  Average control observed (%): 0%

## Cc1cc(C(F)(C(F)(F)F)C(F)(F)F)ccc1NC(=O)c1cccc(I)c1C(=O)NC(C)(C)CS(C)(=O)=O [Flubendiamide (14a), Flubendiamide]
[2]; [7]
  pest or weed control at 0.4 ppm: 12.5%

## CC1(C)C(C=C(Cl)Cl)C1C(=O)OC(C#N)c1ccc(F)c(Oc2ccccc2)c1 (centres unmarked) [Cyfluthrin (2c), cyfluthrin]
[1]; [9]
  Average control observed (%): 0%

## COC(=O)N(C(=O)N1CO[C@@]2(C(=O)OC)Cc3cc(Cl)ccc3C2=N1)c1ccc(OC(F)(F)F)cc1 [Indoxacarb (12), indoxacarb]
[4]; 0.08 ppm
  Average control observed (%): 25%
[1]; 0.08 ppm, larval mortality after 2 days
  Average control observed (%): 0%
[1]; [9]
  Average control observed (%): 0%
[1]; [10]
  Average control observed (%): 0%
[2]; 0.4 ppm, egg and larval mortality after 5 days
  Average control observed (%): 0%

## CN/C(=N\[N+](=O)[O-])NCc1cnc(Cl)s1 [Clothianidin (3c), clothianidin]
[1]; Aedes aegypti, 48 h, 1 ppm, larval mortality after 2 days, read-out: Average control observed (%)
  pest or weed control at 1 ppm: 0%

## CN1COCN(Cc2cnc(Cl)s2)/C1=N\[N+](=O)[O-] [Thiamethoxam (3a), thiamethoxam]
[4]; 0.03 ppm
  Average control observed (%): 0%
[5]; 0.03 ppm
  Average control observed (%): 0%
[2]; Heliothis virescens, 120 h, 0.03 ppm, egg and larval mortality after 5 days, read-out: Average control observed (%)
  pest or weed control at 0.03 ppm: 0%

## CCOC(=O)OC1=C(c2cc(C)ccc2C)C(=O)N[C@]12CC[C@@H](OC)CC2 [Spirotetramat (13a), spirotetramat]
[1]; Aedes aegypti, 48 h, 80 ppm, larval mortality after 2 days, read-out: Average control observed (%)
  pest or weed control at 80 ppm: 0%

## C/C(=N\C#N)N(C)Cc1ccc(Cl)nc1 [Acetamiprid (3d), acetamiprid]
[1]; [8]
  pest or weed control at 4 ppm: 0%

## N#Cc1nn(-c2c(Cl)cc(C(F)(F)F)cc2Cl)c(N)c1[S+]([O-])C(F)(F)F (centres unmarked) [Fipronil (1b), fipronil]
[4]; 0.4 ppm
  Average control observed (%): 12.5%
[1]; [6]
  pest or weed control at 0.4 ppm: 0%
[2]; Heliothis virescens, 120 h, read-out: Average control observed (%)
  pest or weed control at 0.08 ppm: 0%

## COc1cccc(C(=O)NN(C(=O)c2cc(C)cc(C)c2)C(C)(C)C)c1C [Methoxyfenozide (11), methoxyfenozide]
[2]; [7]
  pest or weed control at 0.4 ppm: 37.5%

## CC1(C)C(C=C(Cl)Cl)C1C(=O)OC(C#N)c1cccc(Oc2ccccc2)c1 (stereo not drawn) [alpha-cypermethrin (2a), alpha-cypermethrin]
[2]; [7]
  pest or weed control at 0.4 ppm: 25%

## O=C(NCc1ncccn1)c1ccc(C2=NO[C@@](c3cc(Cl)c(F)c(Cl)c3)(C(F)(F)F)C2)c2ccncc12 [Compound I-1, 5-[(5S)-5-(3,5-dichloro-4-fluoro-phenyl)-5-(trifluoromethyl)-4H-isoxazol-3-yl]-N-(pyrimidin-2-ylmethyl)isoquinoline-8-carboxamide]
[4]; 0.048 ppm
  Average control observed (%): 0%
[4]; 0.24 ppm
  Average control observed (%): 0%
[1]; Aedes aegypti, 48 h, 0.009 ppm, larval mortality after 2 days, read-out: Average control observed (%)
  pest or weed control at 0.009 ppm: 0%
[1]; Aedes aegypti, 48 h, 0.048 ppm, larval mortality after 2 days, read-out: Average control observed (%)
  pest or weed control at 0.048 ppm: 0%
[1]; Aedes aegypti, 48 h, 0.24 ppm, larval mortality after 2 days, read-out: Average control observed (%)
  pest or weed control at 0.24 ppm: 0%
[5]; 0.05 ppm
  Average control observed (%): 0%
[3]; 0.009 ppm
  Average control observed (%): 0%
[3]; 0.24 ppm
  Average control observed (%): 0%
[2]; Heliothis virescens, 120 h, 0.009 ppm, egg and larval mortality after 5 days, read-out: Average control observed (%)
  pest or weed control at 0.009 ppm: 0%
[2]; Heliothis virescens, 120 h, 0.048 ppm, egg and larval mortality after 5 days, read-out: Average control observed (%)
  pest or weed control at 0.048 ppm: 0%
[2]; Heliothis virescens, 120 h, 0.24 ppm, egg and larval mortality after 5 days, read-out: Average control observed (%)
  pest or weed control at 0.24 ppm: 0%

## CN(C(=O)c1ccccc1)c1cccc(C(=O)Nc2c(Br)cc(C(F)(C(F)(F)F)C(F)(F)F)cc2C(F)(F)F)c1F [Broflanilide (16), broflanilide]
[1]; [10]
  Average control observed (%): 12.5%

## O=C1C=C(N(Cc2ccc(Cl)nc2)CC(F)F)CO1 [Flupyradifurone (3i), flupyradifurone]
[3]; 2 ppm
  Average control observed (%): 12.5%
